According to patent US8231869B2, “Recombinant plasmin for opthalmic indications” (priority 2005, dated 2012):
Read-outs that look alike come from different tables or passages of the source. Where a SMILES comes first, the peptide text is derived from it. [ ]: non-standard residue; d: D form. The star is where a group is joined. pNA = O=[N+]([O-])c1ccc(N*)cc1

What was measured:
[1] = target: delta-plasmin (recombinant human plasmin deletion mutant, kringle 1-serine protease domain, deletion of K2-5; from delta-plasminogen SEQ ID NO: 2) (Homo sapiens, UniProt P00747, DELINS146-524/G536N/G539Q/K528E/L551R/N547D/P558L/Q559E/R549E/V538P/V557I); assay: Amidolytic activity, steady-state kinetics with substrate S-2251; type: biochemical; conditions: substrate S-2251, PBS buffer, pH 7.4, 25° C.
Sequence of delta-plasmin (recombinant human plasmin deletion mutant, kringle 1-serine protease domain, deletion of K2-5; from delta-plasminogen SEQ ID NO: 2) (P00747 with tags, fused parts or gaps K528E/G536N/V538P/G539Q/N547D/R549E/L551R/V557I/P558L/Q559E limits assumed): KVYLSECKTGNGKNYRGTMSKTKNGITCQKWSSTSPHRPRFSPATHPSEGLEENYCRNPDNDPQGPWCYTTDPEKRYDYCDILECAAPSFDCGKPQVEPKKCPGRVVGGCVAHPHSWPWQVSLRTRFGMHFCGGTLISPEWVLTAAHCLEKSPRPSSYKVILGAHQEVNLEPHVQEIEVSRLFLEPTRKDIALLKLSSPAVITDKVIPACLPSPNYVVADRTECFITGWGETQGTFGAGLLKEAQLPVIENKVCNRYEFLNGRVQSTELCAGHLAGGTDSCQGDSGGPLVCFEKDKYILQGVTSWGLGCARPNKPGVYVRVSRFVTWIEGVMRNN

[2] = target: human micro-plasmin (plasmin lacking all five kringles) (Homo sapiens, UniProt P00747); assay: as above; type: biochemical; conditions: substrate S-2251, PBS buffer, pH 7.4, 25° C.
[3] = target: human plasmin (full-length; native human plasminogen SEQ ID NO: 4) (Homo sapiens, UniProt P00747); assay: as above; type: biochemical; conditions: substrate S-2251, PBS buffer, pH 7.4, 25° C.
Sequence of human plasmin (full-length; native human plasminogen SEQ ID NO: 4) (P00747 97-580 partner limits assumed, one chain of several): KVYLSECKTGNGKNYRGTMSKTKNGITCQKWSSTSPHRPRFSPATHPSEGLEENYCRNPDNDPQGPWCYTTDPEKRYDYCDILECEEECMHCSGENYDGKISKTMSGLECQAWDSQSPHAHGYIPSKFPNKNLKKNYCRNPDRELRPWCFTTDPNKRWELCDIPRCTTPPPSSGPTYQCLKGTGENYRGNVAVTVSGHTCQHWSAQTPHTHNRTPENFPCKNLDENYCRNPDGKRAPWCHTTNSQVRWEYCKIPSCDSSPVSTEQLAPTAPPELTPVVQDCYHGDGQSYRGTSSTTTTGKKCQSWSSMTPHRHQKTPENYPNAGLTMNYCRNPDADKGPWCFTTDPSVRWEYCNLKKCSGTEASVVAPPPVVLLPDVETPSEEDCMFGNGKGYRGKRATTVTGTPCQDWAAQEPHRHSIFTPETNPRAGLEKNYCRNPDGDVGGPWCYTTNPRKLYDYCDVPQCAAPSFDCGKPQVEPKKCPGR

[4] = target: kringle 1 (of human plasminogen); conditions: literature value, et al., read-out: kringle 1 affinity for εACA (Kd), cited from earlier work
[5] = substrate: CC(C)C[C@H](NC(=O)[C@H](N)C(C)C)C(=O)N[C@@H](CCCCN)C(=O)Nc1ccc([N+](=O)[O-])cc1; assay: purified protein, by the assay type; type: biochemical, human; conditions: other: substrate S-2251, PBS buffer, pH 7.4, 25° C.

| Molecule | Km [5] | kcat [5] | other results |
| --- | --- | --- | --- |
| CC(C)C[C@H](NC(=O)[C@H](N)C(C)C)C(=O)N[C@@H](CCCCN)C(=O)Nc1ccc([N+](=O)[O-])cc1 [S-2251, D-Val-Leu-Lys-p-nitroanilide] (H-[dV]-Leu-Lys-pNA) |  |  | kcat ([1]; corrected for percent active sites (67%, PNPGB titration)): 12.6 ± 0.75 s⁻¹; kcat (for the preparation) ([1]; not corrected for percent active sites): 8.5 s⁻¹; kcat [2]: 13.2 ± 0.4 s⁻¹; kcat [3]: 12.7 ± 0.383 s⁻¹ |
| NCCCCCC(=O)O [εACA, ε-aminocaproic acid] |  |  | Kd ([4]; Douglas): 13 µM; Kd ([4]; Matsuka): 3.2 µM |
| human plasmin (full-length; native human plasminogen SEQ ID NO: 4) (Homo sapiens) (protein, The C-terminal light chain of plasmin (residues 562-791); The amino-terminal heavy chain of plasmin) VVGGCVAHPHSWPWQVSLRTRFGMHFCGGTLISPEWVLTAAHCLEKSPRPSSYKVILGAHQEVNLEPHVQEIEVSRLFLEPTRKDIALLKLSSPAVITDKVIPACLPSPNYVVADRTECFITGWGETQGTFGAGLLKEAQLPVIENKVCNRYEFLNGRVQSTELCAGHLAGGTDSCQGDSGGPLVCFEKDKYILQGVTSWGLGCARPNKPGVYVRVSRFVTWIEGVMRNN | 193 +/− 7 μM μM | 760 +/− 23 min^−1 min^−1 |  |
| human micro-plasmin (plasmin lacking all five kringles) (Homo sapiens) (protein, micro-plasmin (lacking all five kringles)) VVGGCVAHPHSWPWQVSLRTRFGMHFCGGTLISPEWVLTAAHCLEKSPRPSSYKVILGAHQEVNLEPHVQEIEVSRLFLEPTRKDIALLKLSSPAVITDKVIPACLPSPNYVVADRTECFITGWGETQGTFGAGLLKEAQLPVIENKVCNRYEFLNGRVQSTELCAGHLAGGTDSCQGDSGGPLVCFEKDKYILQGVTSWGLGCARPNKPGVYVRVSRFVTWIEGVMRNN | 145 +/− 13 μM μM | 795 +/− 24 min^−1 min^−1 |  |
| human mini-plasmin (plasmin fragment, domain composition K5-SP; mini-plasminogen residues Val443-Asn791) (Homo sapiens) (protein, includes residues Val443-Asn791 and consists of the fifth kringle and the serine protease domain) VVGGCVAHPHSWPWQVSLRTRFGMHFCGGTLISPEWVLTAAHCLEKSPRPSSYKVILGAHQEVNLEPHVQEIEVSRLFLEPTRKDIALLKLSSPAVITDKVIPACLPSPNYVVADRTECFITGWGETQGTFGAGLLKEAQLPVIENKVCNRYEFLNGRVQSTELCAGHLAGGTDSCQGDSGGPLVCFEKDKYILQGVTSWGLGCARPNKPGVYVRVSRFVTWIEGVMRNN | 160 +/− 30 μM μM | 770 +/− 70 min^−1 min^−1 |  |
